Molecular target: Acetylcholinesterase (Homo sapiens) (UniProt P22303)
Experiment: Inhibition of acetylcholinesterase at 100 uM by chemiluminescence method

Chain of Acetylcholinesterase (Homo sapiens) (P22303 whole entry): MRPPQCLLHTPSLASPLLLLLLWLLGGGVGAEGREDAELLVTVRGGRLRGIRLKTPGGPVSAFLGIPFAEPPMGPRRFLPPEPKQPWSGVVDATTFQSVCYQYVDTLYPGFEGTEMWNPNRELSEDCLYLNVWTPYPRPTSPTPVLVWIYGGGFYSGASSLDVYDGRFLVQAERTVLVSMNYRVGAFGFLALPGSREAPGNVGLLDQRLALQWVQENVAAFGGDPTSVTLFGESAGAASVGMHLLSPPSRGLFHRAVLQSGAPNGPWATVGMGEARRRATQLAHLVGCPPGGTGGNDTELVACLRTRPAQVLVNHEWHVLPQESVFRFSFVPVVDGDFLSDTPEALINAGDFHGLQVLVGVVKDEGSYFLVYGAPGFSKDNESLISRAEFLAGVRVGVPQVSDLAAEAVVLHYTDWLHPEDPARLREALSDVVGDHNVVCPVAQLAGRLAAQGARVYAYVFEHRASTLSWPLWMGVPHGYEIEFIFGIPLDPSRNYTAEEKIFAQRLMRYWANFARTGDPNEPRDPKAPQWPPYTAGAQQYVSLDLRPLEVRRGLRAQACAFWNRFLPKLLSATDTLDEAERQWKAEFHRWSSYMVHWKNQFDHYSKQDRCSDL

Row | SMILES | inhibition [%]
1 | CO[C@@H]1CC[C@](C)(O)C(C(=O)C2(C)NC(=O)CC[C@H](N)C(=O)O2)=C1O (some centres not stated) | 20
2 | C=C1CC[C@@H](OC)C(O)=C1C(=O)C1(C)NC(=O)CC[C@H](N)C(=O)O1 (some centres not stated) | 7

From ChEMBL document CHEMBL1156660, “Alkaloids from the mushroom Pseudobaeospora pyrifera, pyriferines A-C” (J Nat Prod, 2008)
